Earlier results in patent US20100003344A1, “Cosmetic Skincare Method Employing Mechanical Stresses” (L'OREAL, priority 2005, published 2010).
Where two headings read alike, the source gives them in different places. Ends that are not written are not given here.

Legend:
β1 integrins [1] = settings: applied to the skin ex vivo
[2] = system: α2, α3, α6, αv and β1 integrins; settings: keratinocytes in culture or in reconstructed skins
beta1 integrins = settings: stated as known
β1 integrins [3] = settings: cells in culture
β1 integrins [4] = system: β1 integrins

Row | Substance | expression of integrins, in particular the α2, α3, α6, αv and β1 integrins [2] | number of mechanoreceptors (beta1 integrins) on the surface of the keratinocytes (beta1 integrins) | further results
1 | GPQGPQ [COLLAXYL] |  |  | expression of β1 integrins (β1 integrins [1]): stimulates the expression of β1 integrins
2 | manganese gluconate | capable of increasing the expression of integrins | increase the number of mechanoreceptors | 
3 | zinc gluconate | capable of increasing the expression of integrins |  | 
4 | copper gluconate | capable of increasing the expression of integrins |  | 
5 | KLDAPT [VINCI 02] |  | increase the number of mechanoreceptors | expression of β1 integrins (β1 integrins [3]): stimulates the expression of β1 integrins
6 | RDFTKATNIRLRFLR [VINCI 01] |  |  | expression of β1 integrins (β1 integrins [4]): stimulates the expression of β1 integrins
